Legend:
Rattus norvegicus [1] = assay: Total electrolytic excretion of chlorine in urine of rats after peroral administration of 341 uM/Kg of drug; type: ADME, organism-based; settings: in vivo, po
Canis familiaris [2] = assay: Total electrolytic excretion of sodium in urine of dogs after peroral administration of 102 uM/Kg of drug; type: ADME, organism-based, Canis lupus familiaris; settings: dog, in vivo, po
Canis familiaris [3] = assay: Total electrolytic excretion of sodium in urine of dogs after peroral administration of 68.1 uM/Kg of drug; type: ADME, organism-based, Canis lupus familiaris; settings: dog, in vivo, po
Rattus norvegicus [4] = assay: Total electrolytic excretion of potassium in urine of rats after peroral administration of 341 uM/Kg of drug; type: ADME, organism-based; settings: in vivo, po
Rattus norvegicus [5] = assay: Total electrolytic excretion of potassium in urine of rats after peroral administration of 68.1 uM/Kg of drug; type: ADME, organism-based; settings: in vivo, po
Canis familiaris [6] = assay: Total electrolytic excretion of chlorine in urine of dogs after peroral administration of 102 uM/Kg of drug; type: ADME, organism-based, Canis lupus familiaris; settings: dog, in vivo, po
Canis familiaris [7] = assay: Tested for the diuretic activity by measuring the urinary volume after peroral administering 50.8 uM/Kg of drug in dogs; type: ADME, organism-based, Canis lupus familiaris, Urine; settings: dog, in vivo, po
Canis familiaris [8] = assay: Tested for the diuretic activity by measuring the urinary volume after intravenous administering 9.09 uM/Kg of drug in dogs; type: ADME, organism-based, Canis lupus familiaris, Urine; settings: dog, in vivo
Canis familiaris [9] = organism: Canis familiaris; assay: Systemic cardio vascular Hemodynamics of heart rate was measured in Beagle dogs after giving the dose of MNX plus the drug; type: functional, Canis lupus familiaris
Canis familiaris [10] = organism: Canis familiaris; assay: Systemic cardio vascular Hemodynamics of stroke index was measured in Beagle dogs after giving the dose of MNX; type: functional, Canis lupus familiaris, Heart
Canis familiaris [11] = organism: Canis familiaris; assay: Systemic cardio vascular Hemodynamics of stroke index was measured in Beagle dogs after giving the dose of MNX plus the drug; type: functional, Canis lupus familiaris, Heart
Canis familiaris [12] = organism: Canis familiaris; assay: Systemic cardio vascular Hemodynamics of mean arterial pressure was measured in Beagle dogs after giving the dose of MNX; type: functional, Canis lupus familiaris, Heart
Canis familiaris [13] = organism: Canis familiaris; assay: Systemic cardio vascular Hemodynamics of total peripheral resistance was measured in Beagle dogs after giving the dose of MNX plus the drug; type: functional, Canis lupus familiaris, Heart
Canis familiaris [14] = organism: Canis familiaris; assay: Tissue vascular resistance of large intestine was measured in Beagle dogs before treatment; type: functional, Canis lupus familiaris
Canis familiaris [15] = organism: Canis familiaris; assay: Tissue vascular resistance of left ventricle was measured in Beagle dogs after giving the dose of MNX; type: functional, Canis lupus familiaris, Heart left ventricle
Canis familiaris [16] = organism: Canis familiaris; assay: Tissue vascular resistance of left ventricle was measured in Beagle dogs before treatment; type: functional, Canis lupus familiaris, Heart left ventricle
Canis familiaris [17] = organism: Canis familiaris; assay: Tissue vascular resistance of pancreas was measured in Beagle dogs after giving the dose of MNX plus the drug; type: functional, Canis lupus familiaris
Canis familiaris [18] = organism: Canis familiaris; assay: Tissue vascular resistance of right atrium was measured in Beagle dogs after giving the dose of MNX; type: functional, Canis lupus familiaris, Cardiac atrium
Rattus norvegicus [19] = assay: Ratio of Total electrolytic excretion of sodium and potassium in urine of rats after intravenous administration of 3.03 uM/Kg of drug; type: ADME, organism-based; settings: in vivo
Rattus norvegicus [20] = assay: Ratio of Total electrolytic excretion of sodium and potassium in urine of rats after peroral administration of 341 uM/Kg of drug; type: ADME, organism-based; settings: in vivo, po
Rattus norvegicus [21] = assay: Ratio of Total electrolytic excretion of sodium and potassium in urine of rats after peroral administration of 68.1 uM/Kg of drug; type: ADME, organism-based; settings: in vivo, po

Excretion Cl- (Rattus norvegicus [1]): 1.64 m equiv
Excretion Na+ (Canis familiaris [2]): 22.5 m equiv
Excretion Na+ (Canis familiaris [3]): 14 m equiv
Excretion K+ (Rattus norvegicus [4]): 0.34 m equiv
Excretion K+ (Rattus norvegicus [5]): 2 m equiv
Excretion Cl- (Canis familiaris [6]): 19.6 m equiv
V (Canis familiaris [7]): 62 mL
V (Canis familiaris [8]): 87 mL
Ratio (Rattus norvegicus [19]): 8.4
Ratio (Rattus norvegicus [20]): 5
Ratio (Rattus norvegicus [21]): 8.6
SMILES: C1CCC(N=C(NC2CCCCC2)N2CCOCC2)CC1
HR (Canis familiaris [9]): 132 beats min-1
SI (Canis familiaris [10]): 1.9 ml beat-1 kg-1
SI (Canis familiaris [11]): 1.1 ml beat-1 kg-1
MAP (Canis familiaris [12]): 75 mmHg
TPR (Canis familiaris [13]): 0.91 mmHg·min·kg/mL
TVR (Canis familiaris [14]): 264 mmHg·min·g/mL
TVR (Canis familiaris [15]): 10 mmHg·min·g/mL
TVR (Canis familiaris [16]): 112 mmHg·min·g/mL
TVR (Canis familiaris [17]): 219 mmHg·min·g/mL
TVR (Canis familiaris [18]): 37 mmHg·min·g/mL

From ChEMBL document CHEMBL1127385, “Synthesis and diuretic activity of alkyl- and arylguanidine analogs of N,N'-dicyclohexyl-4-morpholinecarboxamidine in rats and dogs” (J Med Chem, 1994)
